Assay results as given in patent publication US9101582B2, “Use of a pneumococcal P4 peptide for enhancing opsonophagocytosis in response to a pathogen” (priority 2008, dated 2015).
Several values for one entry are separate records, joined by “and”; a condition that tells them apart may be missing. Identical values can stand only once. Entries after “also recorded” stand apart in the source; their conditions may differ. Ends that are not written are not given here.

Key:
[1] = tested on: S. pneumoniae serotype 3 (WU2); test: Combination therapy of moribund mice after intranasal S. pneumoniae WU2 infection (Example 2); type: in vivo
Source text: S. pneumoniae serotype 3 (WU2) was used for mouse infections as described previously (Rajam et al. J. Infect. Dis. 199:1233-1238, 1999). P4, a 28-amino-acid peptide, was synthesized, purified, and prepared for combination therapy as described previously (Carlone et al. Microb. Pathog. 44:186-196, 2008). Gamma globulin (intravenous immunoglobulin [IVIG]; Gamunex, Telecris, N.C.) was used as a source of Pnc serotype-specific polysaccharide antibodies (Frasch and Scott Clin. Diagn. Lab. Immunol. 11:1158-1164, 2004; Rajam et al., Clin. Vaccine Immunol. 14:1223-1227, 2007; Romero-Steiner et al., Clin. Diagn. Lab. Immunol. 10:1019-1024, 2003). Ceftriaxone (catalog no. C5793; Sigma-Aldrich, St. Louis, Mo.), an expanded-spectrum cephalosporin, was dissolved in phosphate-buffered saline (0.01 M), and working dilutions in phosphate-buffered saline were made for mouse inoculations.
Female Swiss Webster mice (Charles River Laboratories, Wilmington, Mass.) 6 to 10 weeks of age were used in this study. All experiments were approved by the Institutional Animal Care and Use Committee (IACUC) and conducted according to the institutional ethical guidelines for animal experiments and safety guidelines.
Intranasal infections of mice with a Pnc isolate were carried out by adopting the methodology described by Briles et al., 2003. Briefly, a mouse was injected intraperitoneally (ip) with 20 μl of 100-mg/ml ketamine hydrochloride (KETASET®; Wyeth). Once the mouse was lethargic, 40 μl of the bacterial suspension (˜2.1×10^7 cells/mouse) was dispensed drop by drop close to the nose, allowing the mouse to inhale the bacteria. Scruffiness combined with a hunched posture or lethargy indicated moribundity in a mouse. […] Control groups included untreated animals or animals that received P4 alone, IVIG alone, or ceftriaxone (at 0.3, 3.0, 300, or 3,000 μg/mouse) alone. Treatment groups included mice that received a single inoculum containing P4 and IVIG with or without ceftriaxone at one of three different doses (0.3, 3.0, or 300 μg/mouse).
Mice were restrained using a Tailveiner restrainer (model no. TV-150; Braintree Scientific, Braintree, Mass.). IVIG and/or P4 was administered intravenously (iv) using a 25-gauge needle and a 1-ml syringe. IVIG (100-μl volume/mouse) was administered first, followed 20 min later by P4 (50 μg in a 100-μl volume/mouse). Ceftriaxone was administered (ip in a 100-μl volume/mouse) 30 min after P4 administration. Animals were monitored daily for 7 days or (in the repeat infection study) 36 days post treatment for clinical signs of disease progression. For repeat therapy, mice rescued with P4 combination therapy were reinfected on day 28 post treatment and treated again with P4 combination therapy.
The in vivo combination therapy experiments were repeated three to five times, and repeat therapy was performed once. The numbers of moribund animals up to 7 and 36 days after the combination and repeat therapies, respectively, were recorded, and the data were analyzed for significant differences among various groups by using the paired two-sample t test for means in MICROSOFT® Excel 2003.

[2] = tested on: S. pneumoniae serotype 3 (WU2); test: Opsonophagocytic killing (OPK) assay with HL-60 cells differentiated into granulocytes; type: cell-based, Streptococcus pneumoniae
[3] = tested on: HL-60-derived granulocytes; test: Flow cytometric opsonophagocytic assay (fOPA), respiratory burst with OXYBURST-labeled S. pneumoniae serotype 23F; type: cell-based, human; details: P4 100 μg/mL; QC2 serum; titrated out with antibody dilution; FIG. 2A
Experimental: (§1) The flow cytometric opsonophagocytic assay (fOPA) was performed with HL-60 cells differentiated into granulocytes or monocytes as described by Martinez et al., Clin Diagn Lab Immunol 9:485-8, 2002; Martinez et al., Clin Vaccine Immunol 13:459-66, 2006; and Mezzatesta et al., Infect Immun 42:99-105, 1983. In-house quality-control sera (QC5 and QC268) were used as a source for serotypespecific antibodies against the capsular Ps of S. pneumoniae serotype 14 and Neisseria meningitides A, respectively. Polystyrene beads were covalently linked to S. pneumoniae and non-S. pneumoniae antigens, as described by Martinez et al., Clin Diagn Lab Immunol 9:485-8, 2002; and Martinez et al., Clin Vaccine Immunol 13:459-66, 2006 and used in fOPA.
A loopful of the frozen stock of S. pneumoniae serotype 23F was grown overnight (37° C. in 5% CO2) in Todd-Hewitt broth (Difco) supplemented with 0.5% yeast extract (THYE). A loopful of the overnight culture was transferred to 1 mL of fresh THYE broth and incubated for 3 hours. From this, 200 μL was transferred to 5 mL of THYE broth and incubated for 3 hours, after which 1 mL was transferred to 5 mL of THYE broth and incubated for another 3 hours (all incubations were done at 37° C. in 5% CO2). After the third passage, the bacterial suspension was centrifuged at 6000 g for 10 minutes and resuspended in 1 mL of 0.01 mol/L phosphate buffered saline (PBS). […]

[4] = tested on: freshly isolated granulocytes from human blood; test: fOPA, opsonophagocytic uptake (OPU) of S. pneumoniae serotype 14 Ps-coated beads; type: cell-based; details: P4 100 μg/mL
Experimental: as §1
Heparinized venous blood was obtained from the Emory Blood Donor Services. A leukocyte separation kit, HISTOPAQUE®-1119 (Sigma), was used to separate granulocytes from the blood, in accordance with the method recommended by the manufacturer.

HL-60-derived monocytes = test: fOPA, OPU of N. meningitidis A Ps-coated beads; type: cell-based, human; details: P4 100 μg/mL; QC268 serum; FIG. 2C
Experimental: as §1

P4 toxicity test in mice = type: in vivo; details: ip, 1, 10, 100 and 1000 μg/mouse; 10-week-old ND4-SW mice
Experimental: At 72 hours, all the infected mice were moribund (n=60; moribund score, 2-3 [see below]). At 72 and 96 hours after infection, 40 animals were passively immunized with gamma globulin (100 μL/mouse; iv, n=20; ip, n=20). After a time lapse of 20 minutes, allowing for possible preopsonization in vivo, 20 of the passively immunized mice (intravenous (iv), n=10; intraperitoneal (ip), n=10) received P4 (100 μg; 100 μL/mouse) through an iv or ip route. Control mice were given DEPC water (100 μL) or P4 alone. Initially, P4 peptide was tested for toxicity in mice at 1, 10, 100, and 1000 μg. P4 was injected ip into 10-week-old ND4-SW mice at a constant volume of 100 μL.

[5] = tested on: S. pneumoniae serotype 3 (WU2); test: Test for bacteremia in blood of treated mice; type: in vivo; details: P4-treated mice
Experimental: Blood samples from P4-treated and untreated mice were collected (Rajam et al., J. Infect. Dis. 199:1233-1238, 2009), and […] aliquots of the heparinized blood samples were spread onto plates of blood agar (blood agar base plus 5% sheep blood plus gentamicin [2.5 mg/liter]). The plates were incubated for 18 to 24 hours at 37° C. in 5% CO^2, and bacteria were counted.

[6] = tested on: S. pneumoniae serotype 3 (WU2); details: P4 100 μg/ml; PMNs from infected (1 and 2 hours postinfection) or uninfected mice; gamma globulin as IgG source; P<0.05
Experimental: We used the in vitro opsonophagocytic killing assay (OPKA) as described previously by Romero-Steiner et al. (Romero-Steiner et al., Clin. Diagn. Lab. Immunol. 4:415-422, 1997) with polymorphonuclear leukocytes (PMNs) isolated from mice (Devi et al., Indian J. Physiol. Pharmacol. 39:354-360, 1995). Peripheral blood samples were collected from mice 1 and 2 hours postinfection (with Pnc WU2) or from uninfected controls as described previously (Frasch and Scott, 2004), and the buffy coat fractions were separated (Devi et al, 1995) and used as the source of effector cells. Gamma globulin (Gamunex, Telecris, N.C.) was used as the serotype-specific antibody source. S. pneumoniae serotype 3 (WU2) was propagated, stored, and used in this assay as described previously (Rajam et al., 2007; Romero-Steiner, 2006). A 100-μg/ml P4 peptide solution was added to the OPKA mixture at the preopsonization stage, and the control wells received diethyl pyrocarbonate water.

anti-P4 IgG = details: serum 14 days post infection from mice treated with P4 therapy
Experimental: Blood samples from mice treated with P4 therapy were collected 14 days post infection, and the serum fractions were separated by adopting the methodology described previously (Rajam, 2009). An enzyme-linked immunosorbent assay (ELISA) was performed to detect and quantify antiprotein immunoglobulin G (IgG) as described previously, with minor modifications (Scott, et al., Clin. Diagn. Lab. Immunol. 12:1195-1201, 2005; Scott et al., J. Infect. Dis. 186:220-226, 2002). Briefly, ELISA plates were coated with the P4 peptide at a 5-μg/ml concentration. Plates were incubated at 4° C. overnight and used to detect and quantify anti-P4 IgG in mouse sera. Horseradish peroxidase-labeled anti-mouse IgG (Sigma, St. Louis, Mo.) was used as the reporter antibody. SUREBLUE® 3,3′,5,5′-tetramethylbenzidine (KPL, Gaithersburg, Md.) was used as the substrate, and 1 N HCl was used as the stop solution. Samples were assayed in triplicate, and suitable positive and negative controls were included.

In the case of CO/N=C(\C(=O)N[C@@H]1C(=O)N2C(C(=O)O)=C(CSc3nc(=O)c(=O)[nH]n3C)CS[C@H]12)c1csc(N)n1 [ceftriaxone, Ceftriaxone], the “protection (survival comparable to untreated controls)” value (“protection” for short) ([1]; ceftriaxone alone 0.3 μg ip) is reported as “poor protection”, the “protection” value ([1]; ceftriaxone alone 3.0 μg ip) is reported as “poor protection” and the “protection” value ([1]; ceftriaxone alone 300 μg ip) is reported as “poor protection”. The survival rate ([1]; ceftriaxone alone 3,000 μg ip, 168 hours) was 90%.
With LFVESSVKRRPMKTVSQDTNIPIYAQIF [P4] the “P4-mediated change in OPK over control” value ([2]; P4 5 μg/mL, gamma globulin 1:8, FIG. 1C) was “no change in OPK”, the “P4-mediated increase in OPK over control” value ([2]; P4 10 μg/mL, gamma globulin 1:8, FIG. 1C) was 8% and the “P4-mediated increase in OPK over control” value ([2]; P4 50 μg/mL, gamma globulin 1:8, FIG. 1C) was 30%. The “P4-mediated increase in OPK over control” value ([2]; P4 100 μg/mL, gamma globulin 1:8, FIG. 1C) was 35%, the “P4-mediated increase in OPK over control” value ([2]; absence of a complement source (heat-inactivated complement), FIG. 1B) was “no increase in OPK” and the “P4-mediated increase in OPK over control” value ([2]; gamma globulin 1:8 dilution, P4 100 μg/mL, FIG. 1A) was 35%. For the same compound, the “P4-mediated increase in OPK over control” value ([2]; gamma globulin 1:32 dilution, FIG. 1A) was “paralleling the results obtained for controls”, the “intraphagocytic respiratory burst (OXYBURST signal)” value [3] was “increase in the intraphagocytic respiratory burst; also recorded: increased the respiratory burst” and the “increase in OPU of S. pneumoniae serotype 14 Ps beads” value (from here on “increase in OPU”) ([4]; antibody dilution 1:64) was 52%. For the same compound, the “increase in OPU” value ([4]; antibody dilution 1:128) was 48%, the “increase in OPU” value ([4]; antibody dilution 1:256) was 25% and the “increase in OPU” value ([4]; antibody dilution 1:512) was 5%. For the same compound, the “OPU of S. pneumoniae serotype 14 Ps-coated beads (in words)” value ([4]; in the presence of QC2, FIG. 2B legend) was “increased the OPU”, the “increase in OPU” value ([4]; overall figure, FIG. 2B) was 50% and the “OPU of N. meningitidis A Ps-coated beads” value (HL-60-derived monocytes) was “increase in the OPU; also recorded: increased the OPU”. The “toxic effect on mice” value (P4 toxicity test in mice) was “no apparent toxic effect”, the “protection” value ([1]; P4 alone) was “poor protection” and the “bacteremia in blood samples” value [5] was “no bacteremia”. For the same compound, the “increase in opsonophagocytic killing over control” value [6] was > 80% and 80% and the “anti-P4 IgG in serum” value (anti-P4 IgG) was “negative”.
